Data on 1 compound can be found in patent US12553889B2, “Small molecules targeting the intrinsically disordered structural ensemble of α-synuclein protect against diverse α-synuclein mediated dysfunctions” (The Regents of the University of California, priority 2019, dated 2026).

Entries after “also recorded” stand apart in the source; their conditions may differ.

For assay [1], the target named is T1, αSyn (Homo sapiens, UniProt P37840). Nature of the assay: Biacore T200 SPR kinetics and affinity to tethered αSyn. The class given is binding. The arrangement: made in house; host or cells: E. coli. The procedure:
RU (resonance units) from the Biacore machine are plotted against time. […] 576755 was injected at six concentrations in two-fold dilutions starting at 200 μM in running buffer containing 25 mM TRIS pH 7.4, 100 mM NaCl, 1% DMSO. […] All data were fitted to 1:1 binding model using the T200 software evaluation.
A Biacore Surface Plasmon Resonance (SPR) method was developed to detect binding to αSyn both in a high throughput manner (Biacore 4000 machine) and in a sensitive format (Biacore T200). A dual capture method was developed in which αSyn is captured both by an antibody to the central region of αSyn and by immobilized N-termal His-tagged αSyn. […]
Surface Plasmon Resonance Measurements. […] Time-dependent binding curves were monitored simultaneously. […] The time-dependent binding curves were monitored simultaneously. […]
Affinity constants were determined using the Biacore T200 evaluation software V.1 by curve fitting using a 1:1 binding model. […] The rate of complex formation during fragment injection is calculated according to the equation (2): dR/dt=kaC(Rmax−R)−kdR (1:1 interaction), where R is the SPR signal in response units (RU), C is the concentration of analyte, Rmax is the maximum analyte binding capacity in RU, and dR/dt is the rate of SPR signal change. […]

The target in assay [2] is T1, αSyn. Nature of the assay: seeded αSyn fibrillization assay (αSyn seeds added at initiation). More on the design: made in house; host or cells: E. coli BL21(DE3), pET-21d. The class given is biochemical. The protocol: Fibrillization assays. Prior to each aggregation assay, purified αSyn at 5 mg/mL was treated with 6M guanidine and dialyzed 36 hours in a 3500 MW cutoff Slide-A-lyzer with three changes of 20 mM sodium phosphate and 100 mM NaCl pH 7.4 buffer. αSyn was centrifuged at 130,000 g for 40 minutes in a Beckman Ultracentrifuge to remove seeding species and supernatant used for assays. For initial testing, 60 mM compound in DMSO was diluted to 300 μM in 0.5% DMSO and controls contained equivalent DMSO concentrations. Assay samples contained 20 μM Thioflavin T, filtered through a 0.45 μm Acrodisc filter prior to each assay, 70 μM αSyn in 20 mM sodium phosphate and 100 mM NaCl pH 7.4. One teflon bead, (0.125″ PTFE, Grade 2 polished) was placed in each well of a 96 well black with clear bottom assay plate (Corning) in a total volume of 500 μL. The plate was sealed with Mylar and parafilm, placed at 37° C. in a Tecan F200Pro Plate Reader and shaken at an amplitude of 6 mm for 120 hours continuously except for a brief time during reading of the plate. Thioflavin T fluorescence was detected by excitation at 440 nm and reading emissions at 485 nm each 60 minutes throughout the assay. […] Data were analyzed in Excel using XL-fit sigmoidal model #600 and when normalized, comparing fluorescence values at 50 hours for compounds as a percentage of DMSO control.

Take `CNC(=O)c1cc(O)ccc1N` [Compound 576755, 2-amino-5-hydroxy-N-methylbenzamide]: the Kd at αSyn [1] (six concentrations in two-fold dilutions from 200 μM, 25 mM TRIS pH 7.4, 100 mM NaCl, 1% DMSO, read-out: binding affinity for αSyn (kinetics fits, 1:1 binding model)) is 73 µM. For the same compound, the “binding behaviour (Biacore traces, off rates)” value at αSyn [1] (tethered αSyn) was “well-behaved, robust and reversible binding”. Also, the “impact on seeded fibrillization” value at αSyn [2] (preformed αSyn fibrils/protofibrils added at initiation) is recorded as “blocks fibrillization; also recorded: anti-aggregation activity”. For the same compound, at αSyn [2] (seeded fibrillization, time in the incubation), the “time at which activity is first seen in seeded fibrillization” value was at most 2 h.
